Bridges are numbered along the chain shown (N, C = ends). Where no end group is shown, it is not given here. The star is where a group is joined. For = O=C*
Legend:
[1] = test system: MMP-9 production in BAE cells; assay: TSP-1-stimulated endothelial MMP-9 production (Example 27); format: cell-based; conditions: for Relative MMP-9 Levels / % inhibition (MMP-9): with 15 μg/ml TSP-1; for inhibited MMP-9 production: at high doses
Description: BAE cells were treated with TSP-1 as described in Example 27. MMP-9 levels were quantitated from densitometry of the zymograms prepared from the BAE cell conditioned media. The control was 15 μg/ml TSP-1. All other treatments were performed in the presence of 15 μg/ml TSP-1.

[2] = test system: mouse B16-F10 melanoma cells; assay: Boyden chamber assay, TSP-1 mediated invasion of collagen (Examples 29, 30); format: cell-based; conditions: for inhibition of TSP-1 mediated invasion: 500 μg/ml peptide top chamber, 20 μg/ml TSP-1 bottom chamber, 6 hours, FIG. 18
Description: Cell invasion was investigated by the Boyden Chamber Invasion Assay using the modified Boyden chamber. T. Frandsen et al., Fibrinolysis, 6: 71-76 (1992). Polycarbonate filters, 12 μm pore size, e.g., Millicell, Millipore Corporation, Bedford, Ma, were coated with 100 μg Type IV collagen (1 mg/ml 60% EtOH) and dried overnight at 25° C. Blind-well Boyden chambers are filled with 600 μl of serum-free media containing 0.1% BSA in the lower compartment, and the coated filters will be mounted in the chamber. Approximately 50,000 cells (tested to be greater than 95% viable) suspended in 400 μl of the same media will be placed in the upper chamber of the apparatus and allowed to settle onto the collagen-coated membrane. Varying concentrations of TSP-1 (0-150 nM) will be placed in the lower compartment and any neutralizing antibodies as well as peptides will be placed in the upper chamber. After an incubation period of about 3 to 6 hours at 37° C., the cells on the upper surface of the filter will be removed with a cotton swab. The filters are then fixed in 3% glutaraldehyde solution and stained with 0.5% crystal violet solution. Invasive cells adhering to the under-surface of the filter are counted using a phase contrast microscope (400×).
Using this assay, mouse B16-F10 melanoma cells (50,000) were plated on the collagen-coated disk of the Boyden chamber apparatus. The top chamber contained melanoma cells in the presence of 500 μg/ml of the TSP-1 derived peptide and the bottom chamber contained 20 μg/ml TSP-1. After 6 hours, cells traversing the collagen were counted as cells attached to the underside of the collagen-coated disk. Five representative fields per chamber in duplicate were counted. The data shown in FIG. 18 represents the average per field and the error bars represent the standard deviation. The scrambled peptide, Val-Cys-Thr-Gly-Ser-Cys (SEQ ID NO: 7), the irrelevant peptide, Ala-Ser-Val-Thr-Ala-Arg (SEQ ID NO: 38), buffer, and the d-amino acid Cys-Ser-Val-Thr-Cys-Gly (SEQ ID NO: 40) had no effect on invasion.
The experiments were performed as described for Example 29. […] In contrast, d-Cys-Ser-Val-Thr-Cys-Gly (SEQ ID NO: 40) had no effect.

[3] = test system: mouse B16-F10 melanoma cells; assay: Direct adhesion to dried peptide (Example 31); format: cell-based; conditions: 10 μg of each peptide; one hour; FIG. 20
Description: Peptide effect on direct adhesion was tested by drying 10 μg of each peptide on the bottom of a 96well microtiter plate. Plates were blocked with BSA. Mouse B16-F10 melanoma cells (50,000) were plated in each well and allowed to attach for one hour. Non-adherent cells were aspirated out, plates rinsed, and adherent cells were fixed, stained, and counted. The error bars represent the standard deviation.

[4] = test system: mouse B16-F10 melanoma cells; assay: Melanoma tumor cell metastasis, peptide i.v. (Example 21); format: in vivo, mice; conditions: 1 mg peptide i.v. shortly before or after tumor implantation; two weeks; FIG. 12
Text: Mice were sacrificed two weeks later and lung tumors counted. Treatment groups consisted of five animals. The photograph of FIG. 12 depicts three lungs from each treatment group. The black spots are melanoma tumors. All metastasis experiments were repeated 2-3 times showing qualitatively similar results depicted in the bar graph of FIG. 12.

[5] = test system: Mouse B16 F10 melanoma cells; assay: Direct adhesion assay (Example 16); format: cell-based; conditions: absorbed compound 2 μg
Description: It is believed that thrombospondin acts in metastasis through its adhesive properties. An assay was developed, generally in accordance with the disclosure of Tuszynski et al., Anal. Bio., 184:189-91 (1990), which evaluates the ability of melanoma cells to adhere to the thrombospondin fragments or analogs of the invention. In this assay, wells of a 96-well microtiter dish (Costar, Cambridge, Mass.) were incubated for two to three hours with […] of a […] solution of various ligands in 20 mM NaCl, pH 7.3. Thrombospondin (purified by the method of Tuszynski et al., J. Biol. Chem., 260:12240-5 (1985), fibronectin (Sigma Chemical Co., Missouri) served as the positive control. Bovine serum albumin (BSA) (Sigma Chemical Co.) served as the negative control. Thrombospondin analogs of the invention p1, p5 and p6 were synthesized as described in Examples 1 through 3. Following peptide adhesion to the microtiter dish, the wells were aspirated, treated with 200 μl phosphate buffered saline (PBS) containing 1% BSA for 1 hour and then washed three more times with 200 μl PBS.
Mouse B16 F10 melanoma cells were grown and harvested during log phase of growth using standard procedures. The harvested cells were washed two times in serum-free Dulbecco's minimum essential medium (DMEM) (Flow Laboratories) and suspended in DMEM at a final concentration of 4×10^5 cells/ml. Of the cell suspension 100 μl was added to each well of the microtiter dish containing the various ligands and the dish incubated at 37° C. in a CO2 incubator for 1 hour. Nonadherent cells were removed by aspiration and the wells washed three times with 200 μl of PBS. The total cell-associated protein was determined by dissolving the attached cells directly in the microtiter wells with 200 μl of the Pierce BCA working solution (Pierce Chem. Co. Booklet No. 23225 (1987)). […] Plates were allowed to cool to room temperature, cover sheets were removed, and the absorbance of each well was determined at 562 nm with a microtiter plate reader (Biotek, Burlington, Vt.)

platelets = assay: Direct platelet adhesion assay (Example 18); format: cell-based; conditions: wells treated with 50 μl of 40 μg/ml
Description: The number of adherent platelets was essentially determined as previously described (Tuszynski et al., Anal. Bio., supra). Briefly, 100 μl of 5×10^8 platelets/ml washed as previously described (Tuszynski, et al., Blood, 72:109-225 (1988)) were added to microtiter plates, the wells of which were treated with 50 μl of a 40 μg/ml peptide or protein solution (Hepes buffered saline, pH 7.4). Solutions were dried at room temperature after incubation in a fume hood for two hours. Wells were blocked for one hour with 1% BSA. Platelets (100 μl) were incubated in the wells for 30 minutes and non-adherent platelets were removed by aspiration. Wells were washed 3× with 200 μl of Hepes buffered saline, pH 7.4. The number of adherent platelets was determined by measuring the platelet-derived protein using the BCA protein assay.

[6] = test system: platelets (platelet-rich-plasma); assay: Platelet aggregation assay in platelet-rich-plasma (Example 8); format: cell-based; conditions: in vitro; FIG. 22
Description: Platelet aggregation was monitored on a single-channel aggregometer equipped to measure luminescence (Chromo-Log, Havertown, Pa.). Platelet-rich-plasma (PRP) was obtained from whole blood anticoagulated with 0.38% sodium citrate by centrifugation at 150×g for 20 minutes.
0.5 ml aliquots of platelet-rich-plasma were aggregated by stirring with 2 uM ADP in the presence of various concentrations of Cys-Ser-Val-Thr-Cys-Gly (SEQ ID NO: 21) and Gly-Arg-Gly-Asp-Ser (SEQ ID NO: 36). Aggregation was measured at 37° as decrease in optical absorbance vs. time in a chrono-log aggregometer and is shown in FIG. 8. Peptides designated in each panel are represented by their amino acid sequence using the one letter amino acid code.

[7] = test system: melanoma cells on absorbed thrombospondin; assay: Competitive assay, thrombospondin specific adhesion to melanoma cells (Example 17); format: cell-based, mouse
Text: The direct adhesion assay of Example 16 was modified to measure the ability of the peptide compounds of the invention to compete with intact thrombospondin for adhesion to melanoma cells.
In this assay, intact thrombospondin is absorbed onto microtiter dishes as described in Example 16. […]

[8] = test system: platelets on absorbed thrombospondin (TSP); assay: Competitive platelet adhesion assay, absorbed thrombospondin (Example 19); format: cell-based; conditions: 250 μg/ml; absorbed protein TSP
Description: (§1) The direct adhesion assay of Example 18 was modified to measure the ability of the peptide compounds of the invention to compete with intact thrombospindin or fibronectin for adhesion of platelets.
(§2) In this assay, thrombospondin (TSP) or fibronectin (FN) was absorbed onto microtiter dish as described in Example 18. The assay was similar to Example 18 except that before platelets were added to the microtiter dishes they were preincubated with 250 μg/ml of various ligands.

[9] = test system: platelets on absorbed fibronectin (FN); assay: Competitive platelet adhesion assay, absorbed fibronectin (Example 19); format: cell-based; conditions: 250 μg/ml; absorbed protein FN
Description: as §1, §2

[10] = test system: B16 F10 mouse melanoma cells; assay: Antimetastatic activity in vivo (Example 20); set-up: species or system C57 black mice; conditions: 16 days

## ASVTAR [irrelevant peptide]
[1]; 0.20 mM
  Relative MMP-9 Levels: 0.78
[1]
  inhibited MMP-9 production: no effects
[2]
  inhibition of TSP-1 mediated invasion: no effect
[3]
  adhesion of cells to dried peptide: did not promote adhesion

## Arg-Gly-Asp
[1]; 0.50 mM
  % inhibition (MMP-9): 0%
  Relative MMP-9 Levels: 1.03
[1]
  inhibited MMP-9 production: no effects

## CSTSCG (cysteine pairing not given here)
[4]
  melanoma cell metastasis (lung tumors): significantly blocked

## Cys-Ser-Val-Thr-Cys-Gly (disulfide linked) (CSVTCG; disulfide 1-5 (inferred)) [cyclic Cys-Ser-Val-Thr-Cys-Gly]
[4]
  melanoma cell metastasis (lung tumors): significantly blocked

## Heparin
[1]; 50 μg/ml
  % inhibition (MMP-9): 6%
  Relative MMP-9 Levels: 0.94
[1]; 500 μg/ml
  % inhibition (MMP-9): 55%
  Relative MMP-9 Levels: 0.45
[1]; 1000 μg/ml
  % inhibition (MMP-9): 50%
  Relative MMP-9 Levels: 0.50
[1]
  inhibited MMP-9 production: 50%

## Thrombospondin: purified thrombospondin, positive control [reference compound]
[5]
  Adhesion as % Thrombospondin: 100%
platelets
  Adherence as % Control (adherent platelets): 100%

## Trp-Ser-Pro-Cys-Ser-Val-Thr-Cys-Gly-NH2 (WSPCSVTCG-NH2; cysteine pairing not given here) [p6]
[6]
  platelet aggregation: inhibit platelet aggregation
[7]; 200 μg/ml
  % of Buffer Control (melanoma cell adhesion to thrombospondin): 74%
[7]; 300 μg/ml
  % of Buffer Control (melanoma cell adhesion to thrombospondin): 74%
[8]
  % Buffer Control (platelet adhesion): 98%
[9]
  % Buffer Control (platelet adhesion): 96%
[10]; 30 μg/mouse
  % buffer control (number of lung tumors): 91%
[10]; 100 μg/mouse
  % buffer control (number of lung tumors): 102%
[10]; 300 μg/mouse
  % buffer control (number of lung tumors): 50%
[10]
  number of tumors compared with controls: statistically fewer tumors than controls
  size of lung tumors: smaller in size

## VCTGSC (cysteine pairing not given here) [scrambled peptide control, reference compound]
[2]
  inhibition of TSP-1 mediated invasion: no effect
[3]
  adhesion of cells to dried peptide: did not promote adhesion

## WSPCSVTCG (cysteine pairing not given here) [p1]
[6]
  platelet aggregation: inhibit platelet aggregation
[7]; 10 μg/ml
  % of Buffer Control (melanoma cell adhesion to thrombospondin): 49%
[7]; 50 μg/ml
  % of Buffer Control (melanoma cell adhesion to thrombospondin): 40%
platelets
  Adherence as % Control (adherent platelets): adhere to platelets
platelets; listed as P1
  Adherence as % Control (adherent platelets): 39%
[10]; 30 μg/mouse
  % buffer control (number of lung tumors): 49%
[10]
  number of tumors compared with controls: statistically fewer tumors than controls
  size of lung tumors: smaller in size

## d-Gly-Cys-(Acm)-Thr-Val-Ser-Cys-(Acm)
[2]; FIG. 19
  dose-dependent effect on melanoma cell invasion: same dose-dependent inhibition
[3]
  adhesion of cells to dried peptide: half as well as fibronectin and TSP-1

## fTrp-Ser-Pro-Cys-Ser-Val-Thr-Cys-Gly-NH2 (For-WSPCSVTCG-NH2; cysteine pairing not given here) [p5]
[6]
  platelet aggregation: inhibit platelet aggregation
[5]
  Adhesion as % Thrombospondin: display adhesive properties
[5]; listed as P5
  Adhesion as % Thrombospondin: 79%
[7]; 10 μg/ml
  % of Buffer Control (melanoma cell adhesion to thrombospondin): 99%
[7]; 50 μg/ml
  % of Buffer Control (melanoma cell adhesion to thrombospondin): 104%
[7]; 200 μg/ml
  % of Buffer Control (melanoma cell adhesion to thrombospondin): 89%
[7]; 300 μg/ml
  % of Buffer Control (melanoma cell adhesion to thrombospondin): 83%
[8]
  % Buffer Control (platelet adhesion): 107%
[9]
  % Buffer Control (platelet adhesion): 109%
[10]; 30 μg/mouse
  % buffer control (number of lung tumors): 87%
[10]
  number of tumors compared with controls: statistically fewer tumors than controls

## fibronectin [reference compound]
platelets
  Adherence as % Control (adherent platelets): 83%
